How the values were obtained:
Format in all cases: in vivo
[1] = test system: silverleaf whitefly (Bemisia argentifolii Bellows and Perring); assay: whole plant or invertebrate; conditions: Table 2B
Procedure, shortened: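 Whitefly-egg-infested 12–14-day-old cotton plants sprayed with compound in 10% acetone/90% water plus 300 ppm non-ionic surfactant, in triplicate. Plants then held 13 days at 28 °C and 50–70% relative humidity before mortality assessment.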

[2] = test system: western flower thrip (Frankliniella occidentalis Pergande); assay: whole plant or invertebrate; conditions: single compound, spray, 7 days
Procedure, shortened: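 Compounds in 10% acetone/90% water with 300 ppm non-ionic surfactant were sprayed onto 5- to 7-day-old bean plants, 3 replicates. After 1 h drying, 22–27 adult thrips were added per unit. Units were held 7 days at 25° C, 45–55% RH, assessing contact and/or systemic control.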

[3] = test system: potato leafhopper (Empoasca fabae Harris); assay: whole plant or invertebrate; conditions: alone
Procedure, shortened: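 Bean plants (5–6 days old, one primary leaf excised) were sprayed with 1 mL of compound in 10% acetone/water with 300 ppm X-77 surfactant, 3 replicates. After drying for 1 h, each unit was infested with 5 adult leafhoppers. Units were held 6 days at 19–21 °C and 50–70% RH.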

[4] = test system: corn planthopper (Peregrines maidis); assay: whole plant or invertebrate; conditions: Corn Plant Hopper
Procedure, shortened: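 Compounds in 10% acetone/90% water with 300 ppm X-77 surfactant sprayed (3 replications) onto 3- to 4-day-old corn plants, dried 1 h, then infested with 10–20 corn planthopper nymphs aged 18–20 days. Held 6 days at 19-21° C. and 50-70% relative humidity; contact and/or systemic control assessed.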

[5] = test system: cotton melon aphid (Aphis gossypii Glover); assay: whole plant or invertebrate
Procedure, shortened: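 Cotton plants (6–7 days old) pre-infested with 30–40 aphids by cut-leaf method, sprayed with compound (ppm) in 10% acetone/90% water with 300 ppm X-77 surfactant, three replicates. Held 6 days at 19–21 °C, 50–70% RH; contact and/or systemic control assessed.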

[6] = test system: green peach aphid (Myzus persicae Sulzer); assay: whole plant or invertebrate; conditions: Green Peach Aphid
Procedure, shortened: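 Compounds formulated in 10% acetone/water with 300 ppm X-77 surfactant were atomized onto aphid-infested radish seedlings, with three replicates per treatment. Infestation was 30–40 aphids transferred on excised leaf pieces, covering contact and systemic exposure. Test units stayed 6 days in a growth chamber at 19–21 °C and 50–70% relative humidity.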

[7] = test system: beet armyworm (Spodoptera exigua); assay: Test I: control of beet armyworm, spray on tomato plants, excised leaves, % mortality and % feeding at 72 hours
Method: For evaluating control of beet armyworm (Spodoptera exigua), methomyl was in the liquid formulation as Lannate® LV (29% of active ingredient). Compound 1 was in a water dispersible granules (WDG) formulation with 35% active ingredient. The test compounds were dissolved in water. Enough water was added to make 100 ppm of active ingredient for each compound. Serial dilutions were made to obtain the appropriate concentrations. To obtain the desired mixture concentrations of each compound, twice the desired concentration of each of the two mixture partner compounds were mixed together in equal volumes.
The diluted solutions of the test compounds were sprayed to run-off on three-week-old tomato plants. The plants were placed on a rotating turntable sprayer (10 rpm). Test solutions were applied using a flat fan air-assisted nozzle (Spraying Systems 122440) at 10 psi (69 kPa). After each treated plant had dried, leaves were excised from the treated plant. The leaves were cut into pieces, which were placed singly into 5.5 cm-by-3.5 cm cells of a sixteen-cell plastic tray. Each cell contained a 2.5-cm square of moistened chromatography paper to prevent desiccation. One insect was placed in each cell. There two trays per treatment. […]

[8] = test system: diamondback moth (Plutella xylostella); assay: whole plant or invertebrate
Method: The test compounds were dissolved in water. […] Serial dilutions were made to obtain the appropriate concentrations. To obtain the desired mixture concentrations of each compound, twice the desired concentration of each of the two mixture partner compounds were mixed together in equal volumes.
The diluted solutions of the test compounds were sprayed to run-off on three-week-old tomato plants. The plants were placed on a rotating turntable sprayer (10 rpm). Test solutions were applied using a flat fan air-assisted nozzle (Spraying Systems 122440) at 10 psi (69 kPa). […] The leaves were cut into pieces, which were placed singly into 5.5 cm-by-3.5 cm cells of a sixteen-cell plastic tray. Each cell contained a 2.5-cm square of moistened chromatography paper to prevent desiccation. One insect was placed in each cell. There two trays per treatment. Trays were held in the growth chamber at 25° C., 16-hour light:8-hour dark, 60% relative humidity for 4 days.
For evaluating control of diamondback moth (Plutella xylostella), cabbage (var. Stonehead) plants were grown in Metromix potting soil in 10-cm pots in aluminum trays to test size (28 days, 3-4 full leaves) the plants were sprayed to the point of runoff using the turntable sprayer as described in Test I. Test compounds were formulated and sprayed on test plants as described for Test I. After drying for 2 hours, the treated leaves were excised and infested with one cabbage looper per cell and covered. The test units were placed on trays and put in a growth chamber at 25° C. and 60% relative humidity for 4 days.

Question: With `CNC(=O)ON=C(C)SC` [Methomyl] as the compound, how does the “% mortality (obs)” value ([1]; rate 10 ppm) read?
Answer: 4%

Question: What about the “% mortality (obs)” value ([1]; rate 100 ppm) of the same compound?
Answer: 3%

Question: What about the “% mortality (obs)” value ([1]; rate 1000 ppm) of the same compound?
Answer: 6%

Question: And the “% mortality (obs)” value ([2]; rate 30 ppm)?
Answer: 60%

Question: What about the “% mortality (obs)” value ([2]; rate 100 ppm) of the same compound?
Answer: 60%

Question: And the “% mortality (obs)” value ([2]; rate 300 ppm)?
Answer: 100%

Question: What about the “% mortality (obs)” value ([3]; rate 1 ppm) of the same compound?
Answer: 0%

Question: And the “% mortality (obs)” value ([3]; rate 2 ppm)?
Answer: 53%

Question: And the “% mortality (obs)” value ([3]; rate 5 ppm)?
Answer: 100%

Question: What about the “% mortality (obs)” value ([4]; rate 0.5 ppm) of the same compound?
Answer: 5%

Question: And the “% mortality (obs)” value ([4]; rate 1 ppm)?
Answer: 21%

Question: What about the “% mortality (obs)” value ([4]; rate 2 ppm) of the same compound?
Answer: 19%

Question: And the “% mortality (obs)” value ([5]; rate 2 ppm)?
Answer: 11%

Question: What about the “% mortality (obs)” value ([5]; rate 5 ppm) of the same compound?
Answer: 35%

Question: What about the “% mortality (obs)” value ([5]; rate 15 ppm) of the same compound?
Answer: 64%

Question: And the “% mortality (obs)” value ([6]; rate 50 ppm)?
Answer: 20%

Question: And the “% mortality (obs)” value ([6]; rate 100 ppm)?
Answer: 61%

Question: What about the “% mortality (obs)” value ([6]; rate 200 ppm) of the same compound?
Answer: 100%

Question: And the “% feeding” value ([7]; Methomyl 5.22 ppm)?
Answer: 17%

Question: What about the “% mortality (observed)” value ([7]; Methomyl 5.22 ppm) of the same compound?
Answer: 6%

Question: And the “% feeding” value ([7]; Methomyl 10.9 ppm)?
Answer: 29%

Question: What about the “% mortality (observed)” value ([7]; Methomyl 10.9 ppm) of the same compound?
Answer: 10%

Question: And the “% feeding” value ([7]; Methomyl 16.3 ppm)?
Answer: 9%

Question: What about the “% mortality (observed)” value ([7]; Methomyl 16.3 ppm) of the same compound?
Answer: 44%

Question: And the “% feeding” value ([7]; Methomyl 20.6 ppm)?
Answer: 10%

Question: What about the “% mortality (observed)” value ([7]; Methomyl 20.6 ppm) of the same compound?
Answer: 16%

Question: What about the “% feeding” value ([7]; Methomyl 37.8 ppm) of the same compound?
Answer: 3%

Question: What about the “% mortality (observed)” value ([7]; Methomyl 37.8 ppm) of the same compound?
Answer: 44%

Question: And the “% feeding” value ([7]; Methomyl 100 ppm)?
Answer: 0%

Question: What about the “% mortality (observed)” value ([7]; Methomyl 100 ppm) of the same compound?
Answer: 84%

Question: What about the “% mortality (obs)” value ([8]; rate 30 ppm) of the same compound?
Answer: 80%

Question: What about the “% mortality (obs)” value ([8]; rate 40 ppm) of the same compound?
Answer: 90%

Question: What about the “% mortality (obs)” value ([8]; rate 50 ppm) of the same compound?
Answer: 80%

Question: With Thiamethoxam as the compound, how does the “% mortality (obs)” value ([1]; rate 5 ppm) read?
Answer: 15%

Question: And the “% mortality (obs)” value ([1]; rate 15 ppm)?
Answer: 78%

Question: What about the “% mortality (obs)” value ([1]; rate 30 ppm) of the same compound?
Answer: 92%

Question: What about the “% mortality (obs)” value ([2]; rate 5 ppm) of the same compound?
Answer: 20%

Question: And the “% mortality (obs)” value ([2]; rate 50 ppm)?
Answer: 80%

Question: And the “% mortality (obs)” value ([2]; rate 250 ppm)?
Answer: 90%

Question: What about the “% mortality (obs)” value ([3]; rate 0.1 ppm) of the same compound?
Answer: 80%

Question: What about the “% mortality (obs)” value ([3]; rate 0.2 ppm) of the same compound?
Answer: 100%

Question: And the “% mortality (obs)” value ([3]; rate 0.4 ppm)?
Answer: 100%

Question: What about the “% mortality (obs)” value ([4]; rate 0.2 ppm) of the same compound?
Answer: 100%

Question: What about the “% mortality (obs)” value ([4]; rate 0.4 ppm) of the same compound?
Answer: 100%

Question: And the “% mortality (obs)” value ([4]; rate 0.6 ppm)?
Answer: 100%

Question: What about the “% mortality (obs)” value ([5]; rate 0.2 ppm) of the same compound?
Answer: 24%

Question: And the “% mortality (obs)” value ([5]; rate 0.4 ppm)?
Answer: 48%

Question: What about the “% mortality (obs)” value ([5]; rate 0.6 ppm) of the same compound?
Answer: 66%

Question: What about the “% mortality (obs)” value ([6]; rate 0.2 ppm) of the same compound?
Answer: 35%

Question: And the “% mortality (obs)” value ([6]; rate 0.4 ppm)?
Answer: 94%

Question: What about the “% mortality (obs)” value ([6]; rate 0.6 ppm) of the same compound?
Answer: 100%

Question: And the “% mortality (obs)” value ([8]; rate 30 ppm)?
Answer: 90%

Question: What about the “% mortality (obs)” value ([8]; rate 40 ppm) of the same compound?
Answer: 100%

Question: And the “% mortality (obs)” value ([8]; rate 50 ppm)?
Answer: 100%
